Experiments:
HCT116 cells = assay: Cell proliferation inhibition assay, HCT116; format: cell-based; conditions: for inhibition at 3 µM / inhibition at 10 µM / inhibition at 1 µM: Homo sapiens; for inhibition at 3 µM: HCT-116, 3 μM; for inhibition at 10 µM: HCT-116, 10 μM; for inhibition at 1 µM: HCT-116, 1 μM
Procedure: (§1) Cell proliferation inhibition assay-Cell proliferation inhibition assay was performed as previously reported (48). All compounds to be tested were dissolved at 10 mM in DMSO. The cells were seeded into 12-well plates at a density of 40,000 cells per well in 1 mL of culture medium and were cultured overnight at 37° C. Either 1 μL of the compounds or the vehicle control (DMSO) was added to the cells. After 5 days, the medium was removed, and 200 μL of 0.25% trypsin was added. The cells were resuspended in 800 μL phosphate-buffered saline (PBS) and counted with Vi-CELL XR 2.03 (Beckman Coulter, Inc. USA). The ratio R of the number of viable cells in the compound-treated group to the number of viable cells in the DMSO-treated group was called relative growth rate, and the growth inhibition was calculated as (1−R)*100.
(§2) Cell proliferation inhibition assay was conducted according to a previous report (48). The cells were split into 12-well plates at a density of 40,000 cells per well in 1 mL of culture medium and were cultured overnight at 37° C. Either 1 μL of the compounds dissolved at 10 mmol/L in DMSO or the vehicle control (DMSO) was added to the cells. After 5 days, removed the medium, and 200 μL of 0.25% trypsin was added. The cells were resuspended in phosphate-buffered saline (PBS) and counted with Vi-CELL XR 2.03 (Beckman Coulter, Inc. USA). The ratio R of the number of viable cells in the compound treatment group to the number of viable cells in the DMSO treatment group was defined as the relative growth rate, and the growth inhibition rate was calculated as (1−R)*100.

Pt2377 cells = assay: Cell proliferation inhibition assay, Pt2377; format: cell-based; conditions: 120 h; 5 days, viable cells counted
Procedure: as §1

OCV-8 Cell = assay: OCV-8 cell inhibition; format: cell-based; conditions: read-out: OCV-8 Cell Inhibiton; for inhibition at 0.3 µM: 300 nM
LS174T cells = assay: Cell proliferation inhibition assay, LS174T; format: cell-based; conditions: for combinational effect with BAY-876 on proliferation of LS174T cells: in combination with BAY-876
Procedure: as §1, §2

LS174T xenografts = LS174T xenografts in SCID mice; format: in vivo, mouse; conditions: BAY-876 3 mg/kg/day, DBI-1 40 mg/kg/day
Procedure: In vivo evaluation of anti-cancer activity in LS174T xenografts—The mouse studies were conducted with the approval of the University of Kentucky Institutional Animal Care and Use Committee (2020-3531). All methods were carried out in compliance with the relevant guidelines and regulations according to protocols. The LS174T cells in exponential growth phase were trypsinized and resuspended in 50% Matrigel (Corning, Glendale, Arizona). Cells (1.2×10^6) were subcutaneously injected on the lower flanks of severe combined immunodeficient mice. The tumor volumes were calculated based on the formula Length×width^2/2. When tumors reached an average volume of 100 mm^3, the mice were divided into control and treatment groups (3 male and 3 female mice/group, two tumors on each mouse). After tumors were established, BAY-876 was given to the mice by gavage feeding to the BAY-876 group at the dose of 3 mg/kg/day. DBI-1 was daily intraperitoneally (i.p.) administered to the DBI-1 group at dose of 40 mg/kg mouse body weight. Mice in the combination treatment group were administered both oral BAY-876 at the dose of 3 mg/kg/day and i.p. DBI-1 at dose of 40 mg/kg mouse body weight. Tumors and mouse weights were measured every three days and the experiment was stopped at day 12. Tumors were isolated and fixed in 10% neutral buffered formalin. Tumor sections were analyzed with H&E and Ki-67 staining at Markey Cancer Center's Biospecimen Procurement and Translational Pathology Shared Resource Facility (BPTP SRF).

[1] = cited from earlier work

Compound | inhibition at 3 µM (HCT116 cells) [%] | inhibition at 10 µM (HCT116 cells) [%] | also measured
O=c1c(-c2ccc(F)c(F)c2)coc2cc(OCCN3CCN(CCO)CC3)ccc12 [XDQ-1-13] | 10 | 61 | –
CN(C)CCN(C)CCCCOc1ccc2c(=O)c(-c3ccc(Br)cc3)coc2c1 [DBI-1, 3-(4-Bromophenyl)-7-(4-((2-(dimethylamino)ethyl)(methyl)amino)butoxy)-4H-chromen-4-one] | – | – | IC50 (Pt2377 cells): 1.4 µM; inhibition at 0.3 µM (OCV-8 Cell): 57%; inhibition at 1 µM (OCV-8 Cell): 96%; inhibition at 1 µM (HCT116 cells): 45%; IC50 (LS174T cells; Homo sapiens, LS174T, 120 h, 5 days, viable cells counted): 1.2 µM; toxicity based on mice body weight growth rate (LS174T xenografts): No significant toxicity
O=c1c(-c2ccc(Cl)cc2)coc2cc(OCCN3CCN(CCO)CC3)ccc12 [WZY-1-47] | 50 | 94 | –
O=c1c(-c2ccc(F)cc2)coc2cc(OCCN3CCNCC3)ccc12 [WZY-1-31] | 0 | 89 | –
O=c1c(-c2ccc(Br)cc2)coc2cc(OCCCCN3CCNCC3)ccc12 [WZY-1-91] | 99.9 | – | inhibition at 0.3 µM (OCV-8 Cell): 34%; inhibition at 1 µM (OCV-8 Cell): 94%
O=c1c(-c2ccc(Br)cc2)coc2cc(OCCCCN3CCN(CCO)CC3)ccc12 [WZY-1-95] | 99 | – | inhibition at 0.3 µM (OCV-8 Cell): 30%; inhibition at 1 µM (OCV-8 Cell): 93%
O=c1c(-c2ccc(Cl)cc2Cl)coc2cc(OCCN3CCN(CCO)CC3)ccc12 [WZY-1-125] | 43.1 | – | –
O=c1c(-c2ccc(F)c(F)c2)coc2cc(OCCN3CCNCC3)ccc12 [XDQ-1-9] | 34 | 94 | –
O=c1c(-c2ccc(Cl)c(Cl)c2)coc2cc(OCCN3CCN(CCO)CC3)ccc12 [XDQ-1-19] | 95 | 94 | inhibition at 0.3 µM (OCV-8 Cell): 60%; inhibition at 1 µM (OCV-8 Cell): 99%
O=c1c(-c2ccc(Br)cc2)coc2cc(OCCCCN3CCOCC3)ccc12 [WZY-1-113] | 62.7 | – | –
C=C(C)[C@H]1Cc2c(ccc3c2O[C@@H]2COc4cc(OC)c(OC)cc4[C@@H]2C3=O)O1 [Rotenone] | – | – | combinational effect with BAY-876 on proliferation of LS174T cells (LS174T cells): synergistical effects with BAY-876
O=c1c(-c2ccc(Cl)cc2)coc2cc(OCCN3CCOCC3)ccc12 [WZY-1-149] | 51.4 | – | –
O=c1c(-c2ccc(Br)cc2)coc2cc(OCCN3CCOCC3)ccc12 [WZY-1-77] | 61.4 | – | –
O=c1c(-c2ccc(Br)cc2)coc2cc(OCCCCn3cccn3)ccc12 [WZY-1-141] | 63.9 | – | –
CN(C)CCN(C)CCOc1ccc2c(=O)c(-c3ccc(Br)cc3)coc2c1 [WZY-1-193] | – | – | inhibition at 0.3 µM (OCV-8 Cell): 57%; inhibition at 1 µM (OCV-8 Cell): 87%; inhibition at 1 µM (HCT116 cells): 26%
O=c1c(-c2ccc(Br)cc2)coc2cc(OCCn3ccnc3)ccc12 [WZY-1-131] | 22 | – | –
COc1ccc(-c2coc3cc(OCCN4CCNCC4)ccc3c2=O)cc1 [WZY-1-59] | 0 | 92 | –

Compound | inhibition at 3 µM (HCT116 cells) [%] | inhibition at 10 µM (HCT116 cells) [%] | also measured
O=c1c(-c2ccc(Br)cc2)coc2cc(OCCCCCCCCn3ccnc3)ccc12 [WZY-1-143] | 61.2 | – | –
O=c1c(-c2ccc(F)cc2)coc2cc(OCCN3CCN(CCO)CC3)ccc12 [WZY-1-33] | 0 | 35 | –
O=c1c(-c2ccc(Br)cc2)coc2cc(OCCCCCCCCN3CCN(CCO)CC3)ccc12 [WZY-1-97] | 99.7 | – | inhibition at 0.3 µM (OCV-8 Cell): 39%; inhibition at 1 µM (OCV-8 Cell): 96%
COc1ccc(-c2coc3cc(OCCN4CCN(CCO)CC4)ccc3c2=O)cc1 [WZY-1-61] | 0 | 52 | –
O=c1c(-c2ccccc2Cl)coc2cc(OCCN3CCN(CCO)CC3)ccc12 [WZY-1-129] | 13 | – | –
Cc1nc(-c2nc(-c3ccc(OC(F)(F)F)cc3)no2)nn1Cc1cccc(N2CCC(S(C)(=O)=O)CC2)c1 [IACS-010759] | – | – | tolerability in preclinical models ([1]; 25 mg/kg/day): not tolerated; antitumor effect in preclinical models ([1]; 5-10 mg/kg/day): tumor regression
O=c1c(-c2ccc(Br)cc2)coc2cc(OCCN3CCN(CCO)CC3)ccc12 [WZY-1-49] | 80 | 94 | –
CN(C)C(=N)N=C(N)N [Metformin] | – | – | combinational effect with BAY-876 on proliferation of LS174T cells (LS174T cells): synergistical effects with BAY-876
O=c1c(-c2ccccc2F)coc2cc(OCCN3CCN(CCO)CC3)ccc12 [WZY-1-67] | 0 | 0 | –
O=c1c(-c2ccc(Br)cc2)coc2cc(OCCCCCCCCN3CCOCC3)ccc12 [WZY-1-101] | 50.6 | – | –
O=c1c(-c2ccc(Cl)cc2Cl)coc2cc(OCCN3CCNCC3)ccc12 [WZY-1-123] | 67.1 | – | –
O=c1c(-c2ccc(Br)cc2)coc2cc(OCCCCN3CCOCC3)ccc12 [WZY-1-155] | – | – | HCT116 Cells Proliferation Inhibition % (HCT116 cells; 3 μM): 65.3%
O=c1c(-c2ccc(Br)cc2)coc2cc(OCCCCCCCCN3CCSCC3)ccc12 [WZY-1-103] | 42.6 | – | –
O=c1c(-c2ccc(Cl)cc2)coc2cc(OCCN3CCNCC3)ccc12 [WZY-1-43] | 92 | 93 | inhibition at 0.3 µM (OCV-8 Cell): 31%; inhibition at 1 µM (OCV-8 Cell): 97%
O=c1c(-c2ccc(Br)cc2)coc2cc(OCCN3CCNCC3)ccc12 [WZY-1-45] | 94 | 93 | inhibition at 0.3 µM (OCV-8 Cell): 43%; inhibition at 1 µM (OCV-8 Cell): 97%
O=c1c(-c2ccc(Br)cc2)coc2cc(OCCCCn3ccnc3)ccc12 [WZY-1-139] | 58.7 | – | –
O=c1c(-c2ccc(Cl)c(Cl)c2)coc2cc(OCCN3CCNCC3)ccc12 [XDQ-1-25] | 93 | 92.5 | inhibition at 0.3 µM (OCV-8 Cell): 72%; inhibition at 1 µM (OCV-8 Cell): 99%

Source: patent US20250042880A1 (UNIVERSITY OF KENTUCKY RESEARCH FOUNDATION, priority 2021, published 2025)
